Measurements taken from US8779001B2, “Stat3 inhibitors” (The United States of America National Institute of Health …, priority 2008, dated 2014).

Key:
Stat1 = target: T1, Stat1 (Homo sapiens, UniProt P42224); experiment: Immunoblot assay of IFN-γ-stimulated Stat1 phosphorylation in HepG2 cells; assay type: cell-based; settings: HepG2, compound 300 μM, 1 hour, IFN-γ 30 ng/ml 30 min
T1 construct: endogenous in cells; host or cells: HepG2
T1 sequence (P42224 1-750): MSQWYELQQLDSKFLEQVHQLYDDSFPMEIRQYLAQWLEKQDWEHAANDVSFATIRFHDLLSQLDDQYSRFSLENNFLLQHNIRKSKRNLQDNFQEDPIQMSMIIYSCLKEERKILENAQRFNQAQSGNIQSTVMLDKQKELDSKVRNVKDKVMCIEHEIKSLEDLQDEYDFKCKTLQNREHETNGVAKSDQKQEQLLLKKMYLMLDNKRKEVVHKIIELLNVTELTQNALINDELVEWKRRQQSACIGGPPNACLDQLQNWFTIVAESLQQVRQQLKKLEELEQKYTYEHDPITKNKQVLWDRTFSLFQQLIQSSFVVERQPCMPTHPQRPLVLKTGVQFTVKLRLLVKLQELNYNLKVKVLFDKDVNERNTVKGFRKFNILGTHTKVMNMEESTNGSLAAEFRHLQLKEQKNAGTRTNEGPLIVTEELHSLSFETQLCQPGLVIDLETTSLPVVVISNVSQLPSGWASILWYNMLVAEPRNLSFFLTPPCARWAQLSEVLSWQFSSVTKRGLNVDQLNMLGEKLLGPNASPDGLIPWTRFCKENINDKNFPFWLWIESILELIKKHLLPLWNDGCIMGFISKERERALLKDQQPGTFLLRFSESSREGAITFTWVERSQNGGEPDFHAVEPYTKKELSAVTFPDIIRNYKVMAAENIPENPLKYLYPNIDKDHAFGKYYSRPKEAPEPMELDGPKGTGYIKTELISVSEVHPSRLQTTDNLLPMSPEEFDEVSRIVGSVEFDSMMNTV
Experimental: HepG2 cells were pretreated with DMSO alone or DMSO containing each of the compounds at a concentration of 300 μM for 60 min. Cells were then stimulated with IFN-γ (30 ng/ml) for 30 min. Protein extracts of cells were separated by SDS-PAGE and immunoblotted serially with antibodies to pStat1, total Stat1 and β-actin. Blots were stripped between each immunoblotting. The results shown are representative of 2 or more experiments.
Immunoblot assay. The human hepatocellular carcinoma cell line (HepG2) was grown in 6-well plates under standard conditions. Cells were pretreated with compounds (0, 1, 3, 10, 30, 100 and 300 uM) for 1 hour then stimulated under optimal conditions with either interferon gamma (IFN-γ; 30 ng/ml for 30 min) to activate Stat1 or interleukin-6 (IL-6; 30 ng/ml for 30 min) to activate Stat3 (30-31). Cultures were then harvested and proteins extracted using high-salt buffer, as described (Shao et al., 2006). Briefly, extracts were mixed with 2× sodium dodecyl sulfate (SDS) sample buffer (125 mmol/L Tris-HCL pH 6.8; 4% SDS; 20% glycerol; 10% 2-mercaptoethanol) at a 1:1 ratio and heated for 5 minutes at 100° C. Proteins (20 μg) were separated by 7.5% SDS-PAGE and transferred to polyvinylidene fluoride (PVDF) membrane (Millipore, Waltham, Mass.) and immunoblotted. Prestained molecular weight markers (Biorad, Hercules, Calif.) were included in each gel. Membranes were probed serially with antibody against Stat1 pY^701 or Stat3 pY^705 followed by antibody against Stat1 or Stat3 (Transduction labs, Lexington, Ky.) then antibody against β-actin (Abeam, Cambridge, Mass.). Membranes were stripped between antibody probing using Restore™ Western Blot Stripping Buffer (Thermo Fisher Scientific Inc., Waltham, Mass.) per the manufacturer's instructions. Horseradish peroxidase-conjugated goat-anti-mouse IgG was used as the secondary antibody (Invitrogen Carlsbad, Calif.) and the membranes were developed with enhanced chemiluminescence (ECL) detection system (Amersham Life Sciences Inc.; Arlington Heights, Ill.).
While Stat3 contributes to oncogenesis, in part, through inhibition of apoptosis, Stat1 is anti-oncogenic; it mediates the apoptotic effects of interferons and contributes to tumor surveillance (Kaplan et al., 1998; Ramana et al., 2000). Consequently, compounds that target Stat3 while sparing Stat1, leaving its anti-oncogenic functions unopposed, may result in a synergistic anti-tumor effect. […] Thus, five of the six exemplary compounds identified were selective and inhibited ligand-stimulated phosphorylation of Stat3 but not Stat1.
EXP IIC. Ligand-mediated pStat3 and pStat1 inhibition assays. […] Briefly, human hepatocellular carcinoma cells (HepG2) are grown in 6-well plates and pretreated with compounds (0, 0.1, 0.3, 1, 3, 10, 30, 100 μM) for 1 hour then stimulated under optimal conditions with either interleukin-6 (IL-6; 30 ng/ml for 30 min) to activate Stat3 or interferon gamma (IFN-γ, 30 ng/ml for 30 min) to activate Stat1. Cells are harvested and proteins extracted using high-salt buffer, mixed with 2× sodium dodecyl sulfate (SDS) sample buffer (125 mmol/L Tris-HCL pH 6.8; 4% SDS; 20% glycerol; 10% 2-mercaptoethanol) at a 1:1 ratio then heated for 5 minutes at 100° C. Proteins (20 μg) are separated by 7.5% SDS-PAGE and transferred to polyvinylidene fluoride (PVDF) membrane (Millipore, Waltham, Mass.) and immunoblotted. Membranes are probed serially with antibody against Stat1 pY701 or Stat3 pY705 followed by antibody against Stat1 or Stat3 (Transduction labs, Lexington, Ky.) then antibody against β-actin (Abcam, Cambridge, Mass.). Membranes are stripped between antibody probings using Restore™ Western Blot Stripping Buffer (Thermo Fisher Scientific Inc., Waltham, Mass.) per the manufacturer's instructions. […]

Stat3:hSIE complexes = target: T2, Stat3:hSIE complexes (Homo sapiens, UniProt P40763); experiment: Electrophoretic mobility shift assay (EMSA) of Stat3 DNA binding; assay type: biochemical; settings: extracts of IL-6-stimulated HepG2 cells, compound 300 μM, 60 minutes at 37° C
T2 construct: endogenous in cells; host or cells: HepG2
Experimental: Electrophoretic mobility shift assays were performed using whole-cell extracts prepared from HepG2 cells without and with stimulation with IL-6 (30 ng/ml) for 30 min. Protein (20 μg) was incubated with radiolabeled duplex oligonucleotide (hSIE) and DMSO without or with the indicated compounds (300 uM) for 60 minutes at 37° C. then separated by PAGE. The gel was dried and autoradiographed; the portion of the gel corresponding to the Stat3-bound hSIE band is shown. Data shown are representative of 2 studies.
Electrophoretic Mobility Shift Assay (EMSA): EMSA was performed using the hSIE radiolabeled duplex oligonucleotide as a probe as described (Tweardy et al., 1995). Briefly, high salt extracts were prepared from HepG2 cells incubated without or with IL-6 (30 ng/ml) for 30 minutes. Protein concentration was determined by Bradford Assay and 20 ug of extract was incubated with compound (300 uM) for 60 minutes at 37° C. […] Gels were dried and autoradiographed.
Once in the nucleus, Stat3 dimers bind to specific DNA elements to activate and, in some instances, repress gene transcription. […] Compounds that bind to the phosphopeptide-binding site of Stat3 might be expected to do the same. […]

breast cancer cell lines = experiment: Breast cancer cell line apoptosis assay, statements over several cell lines; assay type: cell-based, human; settings: five breast cancer cell lines
Experimental: MDA-MB-468 (panel A), MDA-MB-231 (panel B), MDA-MB-435 (panel C), MCF7 (panel D) and MDA-MB-453 (panel E) were seeded in 12-well plates, grown overnight then treated with the indicated compound for 24 hr. Cells were centrifuged and the supernatants assayed for nucleosome levels by ELISA.
Human breast carcinoma cell lines MDA-MB-468, MDA-MB-231, MBA-MD-435 and MCF7 were kindly provided by Dr. Powel H. Brown (Breast Cancer Center, Baylor College of Medicine). Breast cancer cell line, MDA-MB-453 was kindly provided by Dr. Shou Jiang (Breast Cancer Center, Baylor College of Medicine). […] Cells were seeded at 2,500 cells/cm^2 into 12-well plates. […] At 24 hours, treatment was terminated by removing the medium from each well. […] The percent maximum nucleosome level was calculated by dividing the nucleosome level by the maximum nucleosome level achieved in the assay and multiplying by 100.

[1] = system: triple negative human breast cancer xenograft; experiment: Two-day pilot triple-negative human breast cancer xenograft experiment, MSFE measured; assay type: in vivo, SCID Beige mice; settings: 250 mcg, two days of treatment, P<0.05
Excerpt: The mice were sacrificed after two days and MSFE measured.
A tumor line derived from a “triple negative” (ER-negative, PgR-negative, and HER-2 negative) human breast cancer biopsy specimen was transplanted into immunocompromised SCID Beige mice. The animals (n=3) received two doses of vehicle control, 2 different doses of Cpd 188 (125 or 250 mcg), a G-quartet oligodeoxynucleotide (GQ-ODN, T40214; GQ-I) previously determined to target Stat3 (Jing et al., 2004) and a control non-specific ODN (GQ-II) each at two doses (125 or 250 mcg). The animals were sacrificed after only two days of treatment, and MSFE determined.

[2] = system: breast cancer cells with constitutively activated Stat3; settings: Schust et al., 2006; cited from earlier work
Stat3 = Stat3 (Homo sapiens, UniProt P40763); settings: fluorescence polarization, Coleman et al., 2005; read-out: IC50 inhibition of Stat3 binding to pY-peptide; cited from earlier work
Chain of Stat3 (P40763 whole entry): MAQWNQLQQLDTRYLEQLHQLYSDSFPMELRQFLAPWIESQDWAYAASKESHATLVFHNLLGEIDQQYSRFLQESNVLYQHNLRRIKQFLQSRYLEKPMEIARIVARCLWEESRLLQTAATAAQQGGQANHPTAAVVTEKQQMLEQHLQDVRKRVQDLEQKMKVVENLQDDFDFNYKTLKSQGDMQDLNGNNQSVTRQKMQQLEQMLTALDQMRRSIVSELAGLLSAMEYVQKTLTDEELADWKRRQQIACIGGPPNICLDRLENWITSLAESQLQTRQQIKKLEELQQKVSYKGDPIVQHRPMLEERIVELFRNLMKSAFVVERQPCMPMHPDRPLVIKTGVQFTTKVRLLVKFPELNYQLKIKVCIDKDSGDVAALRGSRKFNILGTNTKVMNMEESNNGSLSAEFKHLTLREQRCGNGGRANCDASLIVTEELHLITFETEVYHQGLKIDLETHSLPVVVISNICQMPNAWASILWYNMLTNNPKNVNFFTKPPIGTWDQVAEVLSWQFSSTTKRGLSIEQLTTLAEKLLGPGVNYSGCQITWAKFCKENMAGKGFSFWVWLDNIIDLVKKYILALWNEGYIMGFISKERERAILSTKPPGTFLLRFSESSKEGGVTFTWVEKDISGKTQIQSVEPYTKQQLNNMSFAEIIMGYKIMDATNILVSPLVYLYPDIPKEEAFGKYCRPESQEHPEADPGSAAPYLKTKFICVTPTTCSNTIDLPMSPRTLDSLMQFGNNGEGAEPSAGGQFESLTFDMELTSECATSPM

T2 sequence (P40763 2-770 limits assumed, one chain of several): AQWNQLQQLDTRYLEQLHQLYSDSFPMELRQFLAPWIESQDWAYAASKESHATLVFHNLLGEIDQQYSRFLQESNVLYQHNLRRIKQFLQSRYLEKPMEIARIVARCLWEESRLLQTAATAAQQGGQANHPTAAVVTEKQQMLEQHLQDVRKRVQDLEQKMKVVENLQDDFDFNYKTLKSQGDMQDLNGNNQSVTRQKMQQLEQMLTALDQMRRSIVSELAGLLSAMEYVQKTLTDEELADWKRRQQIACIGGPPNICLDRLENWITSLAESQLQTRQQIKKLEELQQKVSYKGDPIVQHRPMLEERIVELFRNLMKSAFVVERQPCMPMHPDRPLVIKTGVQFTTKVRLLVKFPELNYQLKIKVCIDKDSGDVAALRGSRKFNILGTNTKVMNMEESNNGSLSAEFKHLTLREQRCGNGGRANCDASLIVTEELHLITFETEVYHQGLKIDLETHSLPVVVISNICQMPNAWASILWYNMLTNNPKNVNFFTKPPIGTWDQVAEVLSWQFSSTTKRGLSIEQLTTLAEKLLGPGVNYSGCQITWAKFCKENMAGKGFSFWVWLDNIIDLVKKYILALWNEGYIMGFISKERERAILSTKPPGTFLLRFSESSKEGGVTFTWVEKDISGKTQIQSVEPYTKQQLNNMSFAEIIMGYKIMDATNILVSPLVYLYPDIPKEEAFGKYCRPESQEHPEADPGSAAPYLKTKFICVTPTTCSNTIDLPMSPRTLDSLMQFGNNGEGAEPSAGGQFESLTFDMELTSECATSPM

O=C(O)c1ccc(C=CC(=O)c2ccc3c(c2)OCCO3)cc1 [Cpd3, 4-[3-(2,3-dihydro-1,4-benzodioxin-6-yl)-3-oxo-1-propen-1-yl]benzoic acid]
effect on IFN-γ-stimulated Stat1 phosphorylation (Stat1): did not
effect on Stat3:hSIE band intensity (EMSA) (Stat3:hSIE complexes): reduced the amount of hSIE shifted by half or greater

CCOc1cc(C=C2C(=O)c3ccccc3C2=O)cc(Cl)c1OCc1cccc(C(=O)O)c1 [Cpd3-2, 3-({2-chloro-4-[(1,3-dioxo-1,3-dihydro-2H-inden-2-ylidene)methyl]-6-ethoxyphenoxy}methyl)benzoic acid]
effect on IFN-γ-stimulated Stat1 phosphorylation (Stat1): did not
induction of apoptosis of any of the breast cancer cell lines tested (breast cancer cell lines): neither Cpd3-2 nor Cpd3-7 induced apoptosis

COC(=O)Cc1c(C)c2ccc(OCc3ccc(C(=O)OC)cc3)c(C)c2oc1=O [Cpd3-7, methyl 4-({[3-(2-methyoxy-2-oxoethyl)-4,8-dimethyl-2-oxo-2H-chromen-7-yl]oxy}methyl)benzoate]
effect on IFN-γ-stimulated Stat1 phosphorylation (Stat1): did not
effect on Stat3:hSIE band intensity (EMSA) (Stat3:hSIE complexes): reduced the amount of hSIE shifted by half or greater
induction of apoptosis of any of the breast cancer cell lines tested (breast cancer cell lines): neither Cpd3-2 nor Cpd3-7 induced apoptosis

CCN1C(=O)C(=Cc2ccc(-c3ccc(C(=O)O)cc3)o2)SC1=S [Cpd30, 4{5-[(3-ethyl-4-oxo-2-thioxo-1,3-thiazolidin-5-ylidene)methyl]-2-furyl}benzoic acid]
effect on IFN-γ-stimulated Stat1 phosphorylation (Stat1): did not

CCN1C(=O)C(=Cc2ccc(-c3cc(C(=O)O)ccc3Cl)o2)C(=O)N(CC)C1=S [Cpd30-12, 4-chloro-3-{5-[(1,3-diethyl-4,6-dioxo-2-thioxotetrahydro-5(2H)-pyrimidinylidene)methyl]-2-furyl}benzoic acid]
effect on IFN-γ-stimulated Stat1 phosphorylation (Stat1): blocked Stat1 phosphorylation

O=C(O)CSc1cc(NS(=O)(=O)c2ccc(C(=O)O)cc2)c2ccccc2c1O [Cpd188, 4-[({3-[(carboxymethyl)thio]-4-hydroxy-1-naphthyl}amino)sulfonyl]benzoic acid]
effect on IFN-γ-stimulated Stat1 phosphorylation (Stat1): did not
reduction in MSFE compared to control [1]: significant reduction in MSFE

O=[N+]([O-])c1ccc2c(c1)S(=O)(=O)C=C2 [Stattic]
concentration range inducing apoptosis / Stat3 inhibitory effects [2]: 5 to 20 µM

hydrocinnamoyl-Tyr(PO3H2)-Leu-cis-3,4-methanoPro-Gln-NHB
IC50 (Stat3): 0.125 µM
